Test results as given in patent US20010049128A1, “PROCESS FOR THE FERMENTATIVE PRODUCTION OF L-AMINO ACIDS” (priority 1998, published 2001).
Where two headings read alike, the source gives them in different places.

Assays:
[1] = system: cells in media with inhibiting osmotic stress; settings: cited from earlier work
[2] = system: Brevibacterium flavum DSM5399; settings: 72 hours at 30° C., 300 rpm
Description: A culture medium containing 100 g/l saccharose, 12 g/l (NH4)2SO4, 100 ml/l soya flour hydrolysate, 0.5 g/l K2HPO4, 0.5 g/l KH2PO4, 0.25 g/l MgSO4.7H2O, 5.0 g/l NaCl and 1 ml of a solution of trace salts was adjusted to pH 7.0 and autoclaved. The solution of trace salts consisted of 1.0 g FeSO4.7H2O, 1.0 g MnSO4.H2O, 0.1 g ZnSO4.7H2O, 0.02 g CuSO4 and 0.002 g NiCl2.6H2O, which was made up to 100 ml with demineralised water and a few drops of a 1N HCl solution.
1 ml each of a 0.2 mg/l biotin and thiamine stock solution, which had been sterilised by filtration, were added to the culture medium. 10.0 g/l CaCO3 was sterilised together with the shaking flasks. In the culture medium, the proline concentration resulting from the introduction of soya flour hydrolysate was 0.34 g/l. The specified concentration of proline, obtained from a proline stock solution, was added to the medium after having been sterilised by filtration.
An agar plate with brain-heart agar as nutrient medium, which had been incubated for 72 hours with DSM5399, was suspended in 10 ml of sterile physiological saline. 10 ml portions of cultivation medium were placed in 100 ml Erlenmeyer shaking flasks and inoculated with 100 μl of the withdrawn cell suspension. The cultivation took place over 72 hours at 30° C. and 300 rpm. Subsequent to this, as specified in Example 1, the OD was determined at a wavelength of 660 nm and the threonine concentration was measured.

[3] = system: Corynebacterium glutamicum DSM5715; settings: Proline 0.5 g/l; 72 hours at 33° C., 150 rpm; NaCl 5 g/l
Description: A culture medium containing 2.5 g/l NaCl, 10 g/l peptone and 10 g/l yeast extract was adjusted to pH 7.4 with sodium hydroxide and, after heat sterilisation, 40 ml of 50% glucose solution per liter was added thereto. 47 ml portions of the medium were inoculated with Corynebacterium glutamicum DSM5715 with a needle on an agar plate with brain-heart agar as nutrient medium incubated for 48 hours and were shaken at 150 rpm for 20 hours at 33° C. in an RC-1-TK incubator from the firm Infors AG (Bottmingen, Switzerland). The cells were then washed with sterile physiological saline. The cells were separated by centrifugation for 20 minutes at 4000 rpm in a Beckmann centrifuge J 6B.
For the main cultivation in shaking flasks, 40 g (NH4)2SO4, 0.5 g KH2PO4, 0.5 g K2HPO4, 0.25 g MgSO4.7H2O and 0.3 g L-leucine were weighed in a 1 l beaker and 750 ml distilled water was added thereto. […]
The cultivation took place over 72 hours at 33° C. and 150 rpm in an RC-1-TK incubator from the firm Infors AG (Bottmingen, Switzerland). Subsequent to this, the optical density (OD) (photometer LP2W from the firm Dr. Lange, Berlin, Germany) and the concentration of L-amino acid formed in the culture suspension were determined. Amino acids were analysed by ion-exchange chromatography and post-column reaction with ninhydrin detection, using an amino acid analyser from the firm Eppendorf BioTronik (Hamburg, Germany).

[4] = system: Brevibacterium flavum DSM5399; settings: Proline 0.1 g/l; 72 hours at 30° C., 300 rpm
Description: The solution of trace salts consisted of 1.0 g FeSO4.7H2O, 1.0 g MnSO4.H2O, 0.1 g ZnSO4.7H2O, 0.02 g CuSO4 and 0.002 g NiCl2.6H2O, which was made up to 100 ml with demineralised water and a few drops of a 1N HCl solution.
1 ml each of a 0.2 mg/l biotin and thiamine stock solution, which had been sterilised by filtration, were added to the culture medium. 10.0 g/l CaCO3 was sterilised together with the shaking flasks.
10 ml portions of cultivation medium were placed in 100 ml Erlenmeyer shaking flasks and inoculated with 100 μl of the withdrawn cell suspension. The cultivation took place over 72 hours at 30° C. and 300 rpm.

[5] = Proline 0.34 g/l (resulting from soya flour hydrolysate, none added)

## C[N+](C)(C)CC(=O)[O-] [glycine betaine]
[1]
  growth rate of the cells: stimulates the growth rate
  production of L-lysine: increase in the production of L-lysine

## O=C(O)[C@@H]1CCCN1 [Proline, L-proline]
[2]; [5]
  OD 660 nm: 51.2
  Threonine: 0.63 g/L
[2]; Proline 0.66 g/l
  OD 660 nm: 52.6
  Threonine: 1.29 g/L
[3]
  Lysine: 29.4 g/L
  OD 535 nm: 30.5
[4]
  L-isoleucine: 0.36 g/L
  OD 660 nm: 52.0
